Results reported in PubChem BioAssay (NCI).
Values joined by “and” are separate entries in the source; they are usually repeats but may differ in a detail not shown here. Equal entries are not always repeated.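 Protocol summary: plate cells (96-well), add compound at 5 concentrations, incubate 48 h, interpolate endpoints linearly. GI50 is the concentration that inhibits growth by half. Definition used: TGI = concentration required for complete inhibition of growth.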

Columns and labels:
Test in all cases: NCI tumour cell line growth inhibition, 48 h
M14 melanoma = system: M14 melanoma
K-562 leukemia = system: K-562 leukemia
SF-295 CNS = system: SF-295 CNS
786-0 renal = system: 786-0 renal
IGROV1 ovarian = system: IGROV1 ovarian
MALME-3M melanoma = system: MALME-3M melanoma
A498 renal = system: A498 renal
UO-31 renal = system: UO-31 renal
SNB-75 CNS = system: SNB-75 CNS
COLO 205 colon = system: COLO 205 colon

| Compound | TGI (M14 melanoma) | TGI (K-562 leukemia) [µM] | TGI (SF-295 CNS) [µM] | TGI (786-0 renal) | TGI (IGROV1 ovarian) | TGI (MALME-3M melanoma) | TGI (A498 renal) | TGI (UO-31 renal) | TGI (SNB-75 CNS) | TGI (COLO 205 colon) [µM] | GI50 (M14 melanoma) [µM] | GI50 (K-562 leukemia) | GI50 (SF-295 CNS) [µM] | GI50 (786-0 renal) | GI50 (IGROV1 ovarian) [µM] | GI50 (MALME-3M melanoma) | GI50 (A498 renal) [µM] | GI50 (UO-31 renal) | GI50 (SNB-75 CNS) | GI50 (COLO 205 colon) |
| --- | --- | --- | --- | --- | --- | --- | --- | --- | --- | --- | --- | --- | --- | --- | --- | --- | --- | --- | --- | --- |
| CC1CC(c2ccccc2)=Nc2ccccc2S1(=O)=O (stereo not drawn) | 40.9 µM | 41.9 | 39.4 | 30.9 µM | 37.8 µM | 37.1 µM | 28.2 µM | 29 µM | 35.9 µM | 40.9 | – | – | – | – | – | – | – | – | – | – |
| COc1cc(OC)c(/C=C/c2ccc3ccccc3[n+]2C)c(OC)c1 | 5.01 µM | 20.9 | 4.25 | 16.8 µM | 13.6 µM | 5.38 µM | 5.42 µM | 54 µM | 12.4 µM | 0.465 | 1.22 | 0.271 µM | 0.549 | 3.16 µM | 1.21 | 0.691 µM | 0.535 | 6.14 µM | 0.586 µM | 0.208 µM |
| COc1cc2c(cc1OCc1ccccc1)N=C[C@@H]1C/C(=C/C(=O)NCCCN3C(=O)c4cccc5cccc(c45)C3=O)CN1C2=O | 6.92 µM | > 100 | 9.49 | 11 µM | – | 1.06 µM | 4.07 µM | > 20.7 µM | 3.66 µM | 4.81 | 2.17 | 0.424 µM | 0.63 | 0.423 µM | 0.468 | 0.272 µM | 1.45 | 2.68 µM | 0.877 µM | 1.56 µM |
| Nc1c(C(=O)c2ccccc2)sc2nc(-c3cccs3)ccc12 | 13.3 µM | 20.5 | 1.71 | 7.67 µM | 18.8 µM | 12.6 µM | 3.91 µM | 15.2 µM | 1.42 µM | 4.65 | 0.0924 | 0.0467 µM | 0.171 | 0.725 µM | 1.21 | 1.19 µM | 0.185 | 1.13 µM | 0.187 µM | 0.426 µM |
| NC(=O)c1c[se]c(C2OC(CO)C(O)C2O)n1 (stereo not drawn) | > 100 µM | > 100 | > 49.8 | > 100 µM | > 100 µM | > 100 µM | > 100 µM | > 100 µM | > 100 µM | > 100 | – | – | – | – | – | – | – | – | – | – |
| CC(=O)OCC1OC(n2c(-c3ccccc3)cc(-c3ccco3)c(C#N)c2=O)C(OC(C)=O)C(OC(C)=O)C1OC(C)=O (stereo not drawn) | > 100 µM | > 100 | > 100 | > 100 µM | > 100 µM | > 100 µM | > 100 µM | > 100 µM and 67.6 µM | 40.9 µM and > 100 µM | > 100 | > 100 | > 68.8 µM and 9.04 µM | – | – | – | 23 µM and 85.9 µM | – | > 100 µM and 21.2 µM | 13.3 µM and > 100 µM | > 31.6 µM and 87 µM |
| COC(=O)c1c(-c2ccccc2)cc2c3cc(-c4ccccc4)c(C(=O)OC)n3c3ccccc3n12 | > 100 µM | > 100 | > 100 | > 100 µM | > 100 µM | > 100 µM | > 100 µM | > 100 µM | 91.6 µM | > 100 | – | – | – | – | – | – | – | – | – | – |
| O=C(C(O)c1cn(Cc2ccccc2)c2ccccc12)N1CCCCC1 (stereo not drawn) | > 100 µM | > 100 | > 100 | > 100 µM | > 100 µM | > 100 µM | > 100 µM | > 100 µM | > 100 µM | > 100 | – | – | – | – | – | – | – | – | – | – |
| COc1cc2nc(-c3ccc(C(F)(F)F)cc3)cc(OCCCN3CCOCC3)c2cc1OC | 1.55 µM | 15.9 | 1.68 | 4.47 µM | 21.9 µM | 3.77 µM | 4.52 µM | 7.3 µM | 9.51 µM | 10.3 | 0.355 | 1.18 µM | 0.349 | 1.76 µM | 0.83 | 1.38 µM | 1.51 | 1.77 µM | 2.46 µM | 0.528 µM |
| COC(=O)CCC/C=C\C[C@H]1C=CC(=O)/C1=C/C[C@@H](O)CCc1cccc(C(F)(F)F)c1 | 6.07 µM | 7.98 | 5.21 | 5.57 µM | 13.9 µM | 8.1 µM | 18.2 µM | 3.29 µM | 18.9 µM | 5.85 | 2.1 | 2.23 µM | 2.12 | 2.46 µM | 3.71 | 2.47 µM | 5.93 | 1.73 µM | 5.46 µM | 2.39 µM |
| C=CCCCCCCCCCCCC1CCC(CC)N1 (stereo not drawn) | 24.6 µM | 28.1 | 27.8 | 21.8 µM | 25.9 µM | 31.4 µM | 38.4 µM | 23.8 µM | 33.9 µM | 14.7 | – | – | – | – | – | – | – | – | – | – |
| COc1cc(C2c3cc4c(cc3[C@@H](Nc3ccc(C(=O)O)cc3)C3COC(=O)[C@H]23)OCO4)cc(OC)c1O (stereo partly drawn) | 59.9 µM and > 17.5 µM | > 100 | > 100 | 35 µM and > 17.5 µM | 68.6 µM and > 17.5 µM | 47.9 µM and > 17.5 µM | 68.8 µM and > 17.5 µM | > 100 µM | 27.6 µM and > 17.5 µM | > 100 | – | 14.5 µM and 6.68 µM | – | 12.3 µM and 3.07 µM | – | – | – | – | – | 26.8 µM and 12.9 µM |
| CCCCCCC/C=C/[C@H]1O[C@]23C(=O)C[C@@]4(C[C@@H](OC5OC(CO)C(O)C(O)C5O)C[C@@H]4[C@H]2C=C1C)OC3=O (stereo partly drawn) | 8.43 µM | 18.5 | 12.7 | 10.1 µM | 26.7 µM | 9.87 µM | 9.43 µM | 7.57 µM | 7.17 µM | 17.8 | 3.58 | 2.2 µM | 5.12 | 4.9 µM | 5.67 | 4.82 µM | 4.78 | 3.61 µM | 2.84 µM | 7.1 µM |
| COc1ccc(NC(=O)C2C(=O)N(c3ccc(OC)cc3)C(=O)/C2=N/O)cc1 (stereo not drawn) | > 86.6 µM | > 100 | 52.5 | 41.9 µM | > 80.7 µM | 42.9 µM | 59.3 µM | 47 µM | > 73.7 µM | > 100 | – | – | – | – | – | – | – | – | – | – |
| CC[N+](CCCCCCCCCC[N+](CC)(c1ccccn1)c1ccccn1)(c1ccccn1)c1ccccn1 | 30.5 µM | 16 | 2.29 | 66.2 µM | 11.7 µM | 17.7 µM | 5.58 µM | 12.6 µM | 32.2 µM | 11.6 | 2.57 | 0.49 µM | 0.668 | 3.76 µM | 2.07 | 1.52 µM | 1.02 | 2.09 µM | 1.25 µM | 1.78 µM |
| O=C(Nc1ccccc1)c1ccc(Cl)c([N+](=O)[O-])c1 | 29.9 µM | 14.3 | > 100 | 20.8 µM | 54.3 µM | 42.4 µM | 63.9 µM | > 100 µM | 71.6 µM | 70 | – | – | – | – | – | – | – | – | – | – |
| COc1ccc(-c2c(C3=NCCN3)nnn2-c2ccccc2)cc1 | > 100 µM | > 100 | > 100 | > 100 µM | > 100 µM | > 100 µM | > 100 µM | > 100 µM | > 100 µM | > 100 | – | – | – | – | – | – | – | – | – | – |
